Test results reported in ChEMBL document CHEMBL2073879, “Human monocarboxylate transporter 2 (MCT2) is a high affinity pyruvate transporter” (J Biol Chem, 1998).

Biological target: T1, Monocarboxylate transporter 2 (Homo sapiens) (UniProt O60669)
T1 sequence (whole entry): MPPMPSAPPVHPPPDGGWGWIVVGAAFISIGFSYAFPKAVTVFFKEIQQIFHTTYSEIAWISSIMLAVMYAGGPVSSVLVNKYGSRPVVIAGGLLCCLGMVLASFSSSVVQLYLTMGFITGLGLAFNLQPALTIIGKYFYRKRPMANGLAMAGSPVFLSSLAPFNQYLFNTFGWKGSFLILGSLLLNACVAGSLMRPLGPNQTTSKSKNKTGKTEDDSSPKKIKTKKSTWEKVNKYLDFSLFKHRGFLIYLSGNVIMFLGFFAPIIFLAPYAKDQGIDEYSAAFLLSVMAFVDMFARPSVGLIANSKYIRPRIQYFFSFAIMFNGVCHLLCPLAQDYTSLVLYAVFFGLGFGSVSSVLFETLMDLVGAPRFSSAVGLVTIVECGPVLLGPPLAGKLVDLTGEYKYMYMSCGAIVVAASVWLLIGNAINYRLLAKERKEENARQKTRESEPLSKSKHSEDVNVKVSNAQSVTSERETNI
Experiment: (§1) TP_TRANSPORTER: inhibition of pyruvate uptake in Xenopus laevis oocytes
Type: functional, cell-based
Design: concentration or dose not given beside the values
Conditions: Oocyte

SMILES | Activity
O=C(O)/C=C/c1cccc(O)c1 | 30%
O=C(O)CCCO | 10%
CC(O)C(=O)[O-].[Na+] (stereo unspecified) | 0%
CCOC(=O)/C=C/c1ccc(O)cc1 | 65%
O=CC[C@@H](O)[C@H](O)[C@H](O)CO | is not an inhibitor [-]
CCC(O)C(=O)O (racemic) | 10%
C[C@@H](O)C(=O)O | 10%
CC(O)CC(=O)O (racemic) | 30%

Biological target: T2, Monocarboxylate transporter 1 (Rattus norvegicus) (UniProt P53987)
T2 sequence (whole entry): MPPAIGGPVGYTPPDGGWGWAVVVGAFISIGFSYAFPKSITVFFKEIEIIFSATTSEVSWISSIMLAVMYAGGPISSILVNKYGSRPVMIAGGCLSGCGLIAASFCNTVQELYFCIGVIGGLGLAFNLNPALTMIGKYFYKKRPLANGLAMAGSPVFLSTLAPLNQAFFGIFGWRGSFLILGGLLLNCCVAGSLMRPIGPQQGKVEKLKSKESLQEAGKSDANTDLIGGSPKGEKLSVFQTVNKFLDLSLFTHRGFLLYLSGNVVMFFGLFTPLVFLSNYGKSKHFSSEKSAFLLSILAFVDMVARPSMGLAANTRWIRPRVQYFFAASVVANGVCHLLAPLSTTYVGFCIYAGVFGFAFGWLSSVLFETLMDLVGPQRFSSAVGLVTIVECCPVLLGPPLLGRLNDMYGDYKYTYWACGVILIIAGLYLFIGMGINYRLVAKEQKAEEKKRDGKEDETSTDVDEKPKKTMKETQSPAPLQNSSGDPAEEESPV
Experiment: as §1
Type: functional, cell-based
Design: concentration or dose not given beside the values
Conditions: Oocyte

SMILES | Activity
O=C(O)/C=C/c1cccc(O)c1 | 20%
O=C(O)CCCO | 40%
CC(O)C(=O)[O-].[Na+] (stereo unspecified) | 0%
CCOC(=O)/C=C/c1ccc(O)cc1 | 0%
O=CC[C@@H](O)[C@H](O)[C@H](O)CO | is not an inhibitor [-]
CCC(O)C(=O)O (racemic) | 40%
C[C@@H](O)C(=O)O | 30%
CC(O)CC(=O)O (racemic) | 20%
